Source: PubChem BioAssay (NCI)
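Each compound was tested at five concentrations against cells in 96-well plates for 48 hours. Abbreviation: GI50, concentration required for 50% inhibition of growth. TGI marks complete inhibition of growth.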

Assays:
Assay in all cases: growth of human tumour cells (NCI), 48 h
SNB-75 CNS = test system: SNB-75 CNS
K-562 leukemia = test system: K-562 leukemia
HCC-2998 colon = test system: HCC-2998 colon
SF-539 CNS = test system: SF-539 CNS
TK-10 renal = test system: TK-10 renal
SF-268 CNS = test system: SF-268 CNS
RPMI-8226 leukemia = test system: RPMI-8226 leukemia
SW-620 colon = test system: SW-620 colon
MCF7 breast = test system: MCF7 breast
NCI-H226 lung = test system: NCI-H226 lung

SMILES	TGI (SNB-75 CNS)	TGI (K-562 leukemia)	TGI (HCC-2998 colon)	TGI (SF-539 CNS)	TGI (TK-10 renal)	TGI (SF-268 CNS)	TGI (RPMI-8226 leukemia)	TGI (SW-620 colon)	TGI (MCF7 breast)	TGI (NCI-H226 lung)	GI50 (SNB-75 CNS)	GI50 (HCC-2998 colon)	GI50 (SF-539 CNS)	GI50 (TK-10 renal)	GI50 (SF-268 CNS)	GI50 (RPMI-8226 leukemia)	GI50 (SW-620 colon)
CCOC1CC(=O)c2c(Br)sc(Br)c21 (stereo not given)	35.7 µM	41.5 µM	36.9 µM	69.5 µM	46.4 µM	80.8 µM	49.6 µM	47.1 µM	40.5 µM	–	–	–	–	–	–	–	–
CCOC(=O)C1=C(C(C)=O)CSC(c2ccccc2)=N1	> 100 µM	> 100 µM	> 100 µM	> 100 µM	–	> 100 µM	> 100 µM	> 100 µM	> 100 µM	> 100 µM	–	–	–	–	–	–	–
COP(=O)(O)/C=C/C(NC(=O)C(Cl)(Cl)Cl)c1ccccc1 (stereo not given)	> 100 µM	> 100 µM	> 100 µM	–	> 100 µM	> 100 µM	> 100 µM	> 100 µM	> 100 µM	> 100 µM	–	–	–	–	–	–	–
Cc1cc(C)c2c(=O)n(CN3CC4Nc5ccccc5C4C3)sc2n1 (stereo not given)	–	92.7 µM	–	39.8 µM	35.8 µM	54.1 µM	> 100 µM	63.7 µM	> 100 µM	81.1 µM	–	–	–	–	–	–	–
COc1ccc(/C(=N/O)c2ccccc2-c2nc3ccccc3c(=O)n2-c2ccc(S(=O)(=O)Nc3ncccn3)cc2)cc1C	26.6 µM	21.6 µM	21.7 µM	27.2 µM	> 31.6 µM	> 31.6 µM	42.9 µM	> 31.6 µM	22.2 µM	–	–	–	–	–	–	–	–
COc1cc(/C=C2\C(=O)N(C(=O)Cc3ccccc3)N=C2C)ccc1O	> 100 µM	> 100 µM	> 100 µM	> 100 µM	> 100 µM	> 100 µM	> 100 µM	> 100 µM	–	> 100 µM	–	–	–	–	–	–	–
O=C(CP(=O)(O)O)c1cccs1	> 100 µM	> 100 µM	> 100 µM	> 100 µM	> 100 µM	> 100 µM	> 100 µM	> 100 µM	–	–	–	–	–	–	–	–	–
CCNC(=O)Nc1ccccn1	> 100 µM	> 100 µM	> 100 µM	> 100 µM	> 100 µM	> 100 µM	–	> 100 µM	> 100 µM	> 100 µM	–	–	–	–	–	–	–
CC1(C)O[C@@H]2COC(=O)[C@@H]2O1	> 100 µM	> 100 µM	> 100 µM	> 100 µM	> 100 µM	> 100 µM	–	> 100 µM	> 100 µM	> 100 µM	–	–	–	–	–	–	–
COCOc1ccc(OC)cc1	> 100 µM	> 100 µM	> 100 µM	> 100 µM	–	> 100 µM	> 100 µM	> 100 µM	> 100 µM	> 100 µM	–	–	–	–	–	–	–
Cc1cc2c(C)cc(=O)[nH]c2cc1N	> 100 µM	> 100 µM	> 100 µM	> 100 µM	–	–	> 100 µM	> 100 µM	> 100 µM	> 100 µM	–	–	–	–	–	–	–
CC(C)=C[C@@H]1C[C@H](n2cc(C)c(=O)[nH]c2=O)ON1CCO	> 100 µM	> 100 µM	–	> 100 µM	> 100 µM	> 100 µM	> 100 µM	> 100 µM	> 100 µM	> 100 µM	–	–	–	–	–	–	–
CCCCN1CCN(c2ccc3nc(-c4ccc5nc(-c6ccc(C(F)(F)F)cc6)[nH]c5c4)[nH]c3c2)CC1	2.34 µM	–	3.55 µM	3.02 µM	3.68 µM	3.43 µM	0.475 µM	0.841 µM	–	–	1110 nM	1840 nM	1590 nM	2210 nM	1740 nM	201 nM	297 nM
N#Cc1c(-c2ccccc2)/c(=C\Nc2ccc(Cl)cc2)c(=O)n2c1nc1ccccc12	> 100 µM	–	> 100 µM	> 100 µM	> 100 µM	> 100 µM	45.9 µM	> 100 µM	> 100 µM	> 100 µM	–	–	–	–	–	–	–
CC(C)(C)N=c1n(C(C)(C)C)oc(=O)n1C(C)(C)C	> 100 µM	> 100 µM	> 100 µM	> 100 µM	> 100 µM	–	–	> 100 µM	> 100 µM	> 100 µM	–	–	–	–	–	–	–
CCOC(=O)c1[nH]cc(C)c1-c1ccn(-c2ccccc2)c1	49.5 µM	51 µM	> 100 µM	> 100 µM	> 100 µM	> 100 µM	–	> 100 µM	> 100 µM	> 100 µM	–	–	–	–	–	–	–
Cc1cn2c(/C=C3/C(=O)Nc4cccc(Cl)c43)c(Cl)nc2s1	43.6 µM	> 100 µM	76.5 µM	–	37.4 µM	> 100 µM	> 100 µM	> 100 µM	> 100 µM	–	–	–	–	–	–	–	–
CCC12C[N+]3([O-])CCc4c([nH]c5ccccc45)C(C(=O)OC)(c4cc5c(cc4OC)N(C)C4C(O)(C(=O)OC)C(OC(C)=O)C6(CC)C=CCN7CCC54C76)CC(C3)C1O2 (stereo not given)	0.952 µM	6.28 µM	> 100 µM	0.821 µM	26.8 µM	28.8 µM	1.43 µM	20.4 µM	–	–	–	–	–	–	–	–	–
CCC1=CCC23C(=O)C=CC(=O)C2(C1)C(=O)c1cccc(OC)c1C3=O (stereo not given)	33.5 µM	72.4 µM	–	32.9 µM	33.5 µM	36.2 µM	33.4 µM	34 µM	32.8 µM	67.2 µM	–	–	–	–	–	–	–
O=C1c2ccccc2CN1c1ccc(O)cc1	–	> 100 µM	> 100 µM	> 100 µM	> 100 µM	> 100 µM	> 100 µM	> 100 µM	> 100 µM	> 100 µM	–	–	–	–	–	–	–
Nc1c2ccccc2nc2c1ccc1ncccc12	99.4 µM	88.6 µM	39.1 µM	49.9 µM	> 100 µM	–	–	> 100 µM	72.1 µM	43.9 µM	–	–	–	–	–	–	–
CC(=O)OC[C@]1(C(=O)C(O)c2ccoc2)[C@H](C)CC[C@@]23COC(=O)C2=CCC[C@@H]31 (stereo not given in full)	> 10 µM	–	> 10 µM	> 10 µM	> 10 µM	> 10 µM	> 10 µM	> 10 µM	> 10 µM	> 10 µM	–	–	–	–	–	–	–
CC(=O)NS(=O)(=O)c1ccc(NC(=O)c2c3ccccc3nc3ccccc23)cc1	> 100 µM	> 100 µM	> 100 µM	> 100 µM	> 100 µM	> 100 µM	> 100 µM	> 100 µM	> 100 µM	–	–	–	–	–	–	–	–
